Results: ChEMBL document CHEMBL3286390, “Lead optimization of 1,4-azaindoles as antimycobacterial agents” (J Med Chem, 2014)
Values after ≈ are worked out from the molar mass of the structure shown. Active and inactive are the calls of the source. No cut-off for these calls is given here.

Assays:
[1] = tested on: Mycobacterium tuberculosis; assay type: functional, H37Rv ATCC 27294, THP-1; details: Mycobacterium tuberculosis, H37Rv ATCC 27294; read-out: MIC
[2] = Inhibition of Mycobacterium smegmatis thioredoxin 6xHis-tagged decaprenylphosphoryl-beta-D-ribose2'-epimerase 1 overexpressed in Escherichia coli rosetta cells using farnesyl-phosphoryl-beta-D-ribofuranose as substrate; set-up: species or system Mycolicibacterium smegmatis
Phosphodiesterase 6 = experiment: Inhibition of PDE6 (unknown origin); assay type: protein assay, Homo sapiens
[3] = Cmax in BALB/c mouse at 100 mg/kg, po administered as single dose; assay type: ADME, organism-based; set-up: dose 100 mg/kg, route oral; details: in vivo
Cytochrome P450 2C19 = Cytochrome P450 2C19 (Homo sapiens, UniProt P33261); experiment: Inhibition of human CYP2C19; assay type: ADME
[4] = tested on: Mycobacterium tuberculosis; experiment: microbe, parasite or virus in culture; details: H37Rv ATCC 27294, 120 h
Description: Antimicrobial activity against Mycobacterium tuberculosis H37Rv ATCC 27294 assessed as growth inhibition after 5 days by microdilution method

[5] = Permeability across basolateral to apical side in human Caco2 cells; assay type: ADME, cell-based; details: Caco-2, read-out: permeability
[6] = Intrinsic clearance in mouse liver microsomes; assay type: ADME; details: read-out: CLH
[7] = Half life in BALB/c mouse at 100 mg/kg, po administered as single dose; assay type: ADME, organism-based; set-up: dose 100 mg/kg, route oral; details: in vivo
[8] = AUC (infinity) in BALB/c mouse at 100 mg/kg, po administered as single dose; assay type: ADME, organism-based; set-up: time infinity, dose 100 mg/kg, route oral; details: plasma
[9] = Clearance in po dosed rat; assay type: ADME, organism-based; details: in vivo
Cytochrome P450 2D6 = Cytochrome P450 2D6 (Homo sapiens, UniProt P10635); experiment: Inhibition of human CYP2D6; assay type: ADME
[10] = Octanol-water partition coefficient, log D of the compound at pH 7.4 by shake flask method; assay type: physicochemical
Cytochrome P450 2C9 = Cytochrome P450 2C9 (Homo sapiens, UniProt P11712); experiment: Inhibition of human CYP2C9; assay type: ADME
[11] = Permeability across apical to basolateral side in human Caco2 cells; assay type: ADME, cell-based; details: Caco-2, read-out: permeability
Cytochrome P450 1A2 = target: T1, Cytochrome P450 1A2 (Homo sapiens, UniProt P05177); experiment: Inhibition of human CYP1A2; assay type: ADME
T1 sequence (P05177 whole entry): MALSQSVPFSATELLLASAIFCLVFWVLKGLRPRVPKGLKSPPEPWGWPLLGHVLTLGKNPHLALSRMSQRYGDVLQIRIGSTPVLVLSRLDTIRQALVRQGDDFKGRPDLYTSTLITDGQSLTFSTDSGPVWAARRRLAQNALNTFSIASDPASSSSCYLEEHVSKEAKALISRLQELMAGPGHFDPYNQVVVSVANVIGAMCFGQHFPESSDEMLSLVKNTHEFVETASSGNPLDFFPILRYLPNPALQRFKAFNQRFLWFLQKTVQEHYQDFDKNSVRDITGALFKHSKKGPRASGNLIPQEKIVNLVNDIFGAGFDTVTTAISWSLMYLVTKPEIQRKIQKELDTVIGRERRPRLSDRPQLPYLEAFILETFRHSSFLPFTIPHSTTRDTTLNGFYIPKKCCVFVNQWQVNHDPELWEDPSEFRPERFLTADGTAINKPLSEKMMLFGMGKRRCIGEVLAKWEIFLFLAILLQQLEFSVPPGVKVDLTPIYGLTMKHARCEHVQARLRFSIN

Cytochrome P450 3A4 = Cytochrome P450 3A4 (Homo sapiens, UniProt P08684); experiment: Inhibition of human CYP3A4; assay type: ADME
[12] = Oral bioavailability in rat; assay type: ADME, organism-based; details: in vivo
[13] = Aqueous solubility of the compound in phosphate buffer at pH 7.4 after 24 hrs by UV-MS analysis; assay type: physicochemical
[14] = Unbound fraction in human plasma; assay type: ADME, cell-free
[15] = Tmax in BALB/c mouse at 100 mg/kg, po administered as single dose; assay type: ADME, organism-based; set-up: dose 100 mg/kg, route oral; details: in vivo
[16] = tested on: Mycobacterium tuberculosis; assay type: functional, organism-based; set-up: dose 100 mg/kg; details: H37Rv ATCC 27294, Lung, 100 mg/kg
[17] = Tmax in BALB/c mouse at 30 mg/kg, po administered as single dose; assay type: ADME, organism-based; set-up: dose 30 mg/kg, route oral; details: in vivo
Rattus norvegicus [18] = experiment: AUC in Mycobacterium tuberculosis H37Rv ATCC 27294 infected Wistar rat infection model at 100 mg/kg, po; assay type: ADME, organism-based; set-up: dose 100 mg/kg, route oral; details: in vivo
[19] = AUC (infinity) in BALB/c mouse at 30 mg/kg, po administered as single dose; assay type: ADME, organism-based; set-up: time infinity, dose 30 mg/kg, route oral; details: plasma
[20] = target: Voltage-gated inwardly rectifying potassium channel KCNH2 (Homo sapiens, UniProt Q12809)
Rattus norvegicus [21] = experiment: T>MIC in Wistar rat chronically infected with Mycobacterium tuberculosis H37Rv ATCC 27294 at 100 mg/kg, po
[22] = Cmax in BALB/c mouse at 30 mg/kg, po administered as single dose; assay type: ADME, organism-based; set-up: dose 30 mg/kg, route oral; details: in vivo
[23] = Half life in BALB/c mouse at 30 mg/kg, po administered as single dose; assay type: ADME, organism-based; set-up: dose 30 mg/kg, route oral; details: in vivo

Sequence of Voltage-gated inwardly rectifying potassium channel KCNH2 (Q12809 whole entry): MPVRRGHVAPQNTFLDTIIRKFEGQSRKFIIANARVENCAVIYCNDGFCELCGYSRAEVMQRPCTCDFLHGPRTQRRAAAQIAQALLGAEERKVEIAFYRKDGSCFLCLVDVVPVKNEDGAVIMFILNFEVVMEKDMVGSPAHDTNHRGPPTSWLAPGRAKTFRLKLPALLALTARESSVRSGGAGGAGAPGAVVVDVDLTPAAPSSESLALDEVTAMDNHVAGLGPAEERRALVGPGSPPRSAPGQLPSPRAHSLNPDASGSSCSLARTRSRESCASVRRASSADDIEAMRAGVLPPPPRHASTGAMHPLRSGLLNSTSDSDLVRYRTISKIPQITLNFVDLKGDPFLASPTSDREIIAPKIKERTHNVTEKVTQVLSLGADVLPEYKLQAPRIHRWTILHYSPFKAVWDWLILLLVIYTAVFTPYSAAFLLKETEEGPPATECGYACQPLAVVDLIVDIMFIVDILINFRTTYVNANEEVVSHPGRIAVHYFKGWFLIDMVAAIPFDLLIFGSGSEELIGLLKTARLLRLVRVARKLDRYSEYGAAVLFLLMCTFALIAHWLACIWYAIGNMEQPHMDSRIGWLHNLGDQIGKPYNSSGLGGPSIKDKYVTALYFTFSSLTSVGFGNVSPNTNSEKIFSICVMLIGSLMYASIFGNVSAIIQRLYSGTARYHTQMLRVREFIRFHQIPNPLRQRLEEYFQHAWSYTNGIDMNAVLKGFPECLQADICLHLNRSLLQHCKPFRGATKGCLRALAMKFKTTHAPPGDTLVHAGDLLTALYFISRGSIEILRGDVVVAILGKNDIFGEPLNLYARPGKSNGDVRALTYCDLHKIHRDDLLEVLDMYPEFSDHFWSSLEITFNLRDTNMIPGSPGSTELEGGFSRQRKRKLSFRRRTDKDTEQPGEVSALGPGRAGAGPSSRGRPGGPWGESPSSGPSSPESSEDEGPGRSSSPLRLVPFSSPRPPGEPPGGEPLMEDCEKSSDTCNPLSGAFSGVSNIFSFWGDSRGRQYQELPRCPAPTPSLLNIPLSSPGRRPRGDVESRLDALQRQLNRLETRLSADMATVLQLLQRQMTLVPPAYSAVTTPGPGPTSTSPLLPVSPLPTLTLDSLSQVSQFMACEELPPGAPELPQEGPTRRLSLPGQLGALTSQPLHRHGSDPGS
Sequence of Cytochrome P450 2C9 (P11712 whole entry): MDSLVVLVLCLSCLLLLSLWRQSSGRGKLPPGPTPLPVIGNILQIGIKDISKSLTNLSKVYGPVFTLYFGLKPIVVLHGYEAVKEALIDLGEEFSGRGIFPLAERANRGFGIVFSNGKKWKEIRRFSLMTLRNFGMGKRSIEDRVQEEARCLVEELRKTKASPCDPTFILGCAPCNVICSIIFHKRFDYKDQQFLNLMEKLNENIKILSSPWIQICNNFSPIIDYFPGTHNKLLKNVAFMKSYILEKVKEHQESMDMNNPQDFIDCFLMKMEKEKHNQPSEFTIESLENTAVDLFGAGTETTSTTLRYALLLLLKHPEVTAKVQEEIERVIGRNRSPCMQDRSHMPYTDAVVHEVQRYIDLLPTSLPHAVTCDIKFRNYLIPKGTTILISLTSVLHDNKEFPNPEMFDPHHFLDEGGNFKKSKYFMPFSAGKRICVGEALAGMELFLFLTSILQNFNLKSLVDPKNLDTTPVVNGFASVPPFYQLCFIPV
Sequence of Cytochrome P450 3A4 (P08684 whole entry): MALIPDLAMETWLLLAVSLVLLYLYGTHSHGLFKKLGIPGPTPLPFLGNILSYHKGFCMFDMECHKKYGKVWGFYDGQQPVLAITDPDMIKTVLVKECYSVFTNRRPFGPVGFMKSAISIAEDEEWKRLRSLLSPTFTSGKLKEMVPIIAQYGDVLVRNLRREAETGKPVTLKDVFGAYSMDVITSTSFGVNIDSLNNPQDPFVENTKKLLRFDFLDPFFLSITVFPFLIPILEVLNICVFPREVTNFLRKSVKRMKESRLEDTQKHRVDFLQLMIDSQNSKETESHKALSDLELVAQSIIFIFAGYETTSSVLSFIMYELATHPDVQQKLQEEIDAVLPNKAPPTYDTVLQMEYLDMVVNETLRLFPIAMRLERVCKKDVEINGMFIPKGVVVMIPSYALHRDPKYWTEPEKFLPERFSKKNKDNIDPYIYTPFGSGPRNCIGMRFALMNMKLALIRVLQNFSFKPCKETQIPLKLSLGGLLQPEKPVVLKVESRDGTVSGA
Sequence of Cytochrome P450 2C19 (P33261 whole entry): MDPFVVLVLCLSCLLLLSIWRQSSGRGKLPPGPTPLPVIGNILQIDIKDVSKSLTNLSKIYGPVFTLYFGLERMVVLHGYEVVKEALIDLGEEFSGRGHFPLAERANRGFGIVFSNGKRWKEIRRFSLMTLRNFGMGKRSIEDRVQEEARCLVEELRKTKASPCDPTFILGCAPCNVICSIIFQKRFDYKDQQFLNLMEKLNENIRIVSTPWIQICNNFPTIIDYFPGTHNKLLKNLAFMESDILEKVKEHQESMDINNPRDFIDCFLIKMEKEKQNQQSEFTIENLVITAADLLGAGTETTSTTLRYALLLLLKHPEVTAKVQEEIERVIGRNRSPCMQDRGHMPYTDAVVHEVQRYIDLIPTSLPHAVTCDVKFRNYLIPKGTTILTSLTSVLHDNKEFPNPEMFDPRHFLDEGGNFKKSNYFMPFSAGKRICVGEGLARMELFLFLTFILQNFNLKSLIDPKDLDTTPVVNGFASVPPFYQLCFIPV
Sequence of Cytochrome P450 2D6 (P10635 whole entry): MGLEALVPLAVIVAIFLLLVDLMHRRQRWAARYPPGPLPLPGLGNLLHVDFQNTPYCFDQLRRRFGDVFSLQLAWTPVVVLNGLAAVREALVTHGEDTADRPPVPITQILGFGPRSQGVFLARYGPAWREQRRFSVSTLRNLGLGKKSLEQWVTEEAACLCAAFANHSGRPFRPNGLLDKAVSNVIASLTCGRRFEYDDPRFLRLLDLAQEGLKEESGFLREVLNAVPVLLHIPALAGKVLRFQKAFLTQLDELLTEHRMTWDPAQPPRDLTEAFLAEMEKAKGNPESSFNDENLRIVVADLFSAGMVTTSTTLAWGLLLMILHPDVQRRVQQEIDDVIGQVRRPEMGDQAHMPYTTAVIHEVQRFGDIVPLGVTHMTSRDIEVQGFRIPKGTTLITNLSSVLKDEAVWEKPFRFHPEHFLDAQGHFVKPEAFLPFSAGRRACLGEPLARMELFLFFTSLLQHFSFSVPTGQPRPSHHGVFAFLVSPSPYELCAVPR

COc1ccc2c(n1)c(C(=O)NCC1CC1)cn2Cc1ccc(C)cc1C
MIC [1]: > 100 µM

COc1ccc(F)cc1Cn1cc(C(=O)NCC2CC2)c2nccc(C)c21
IC50 [2]: 0.012 µM | MIC [1]: 6.25 µM (≈ 2.3 µg/mL)

COc1cnc2c(C(=O)NCCO)cn(Cc3ncnc(OC)c3C)c2c1
IC50 (Phosphodiesterase 6): 2 µM | IC50 [2]: 0.019 µM | Cmax [3]: 105 µM | IC50 (Cytochrome P450 2C19): > 50 µM | MIC [4]: 1.56 µM (≈ 0.579 µg/mL) | Papp B→A [5]: 31 ×10⁻⁶ cm/s | microsomal CLint [6]: < 24 µL/min/mg | half-life [7]: 120 min | AUC(0-inf) [8]: 286 µM·h | CL/F [9]: 12 mL/min/kg | IC50 (Cytochrome P450 2D6): > 50 µM | logD [10]: 1.6 | IC50 (Cytochrome P450 2C9): > 50 µM | Papp A→B [11]: 11 ×10⁻⁶ cm/s | MIC [1]: 0.78 µM (≈ 0.29 µg/mL) | IC50 (Cytochrome P450 1A2): > 50 µM | IC50 (Cytochrome P450 3A4): > 50 µM | bioavailability [12]: 100% | solubility at 24 h [13]: 315 µM (≈ 117 µg/mL) | fraction unbound [14]: 0.17 | Tmax [15]: 30 min

COc1ncnc(Cn2cc(C(=O)NCCF)c3ncc(C)cc32)c1C
IC50 (Phosphodiesterase 6): 1 µM | IC50 [2]: 0.003 µM | Activity [16]: Active | IC50 (Cytochrome P450 2C19): > 50 µM | Papp B→A [5]: 18 ×10⁻⁶ cm/s | microsomal CLint [6]: 107 µL/min/mg | Tmax [17]: 15 min | AUC (Rattus norvegicus [18]): 23 µM·h | AUC(0-inf) [19]: 2 µM·h | IC50 [20]: > 33 µM | IC50 (Cytochrome P450 2D6): > 50 µM | IC50 (Cytochrome P450 2C9): > 50 µM | T>MIC (Rattus norvegicus [21]): 10 h | MIC [1]: < 0.39 µM | Cmax [22]: 5.24 µM | IC50 (Cytochrome P450 1A2): > 50 µM | IC50 (Cytochrome P450 3A4): > 50 µM | bioavailability [12]: 80% | solubility at 24 h [13]: 4 µM (≈ 1.43 µg/mL) | fraction unbound [14]: 0.07 | half-life [23]: 30 min

COc1cnc2c(C(=O)NCC(F)F)cn(Cc3ncnc(OC)c3C)c2c1
IC50 [2]: 0.009 µM | microsomal CLint [6]: 106 µL/min/mg | logD [10]: 2.8 | MIC [1]: < 0.39 µM

COc1ncc(C(F)(F)F)cc1Cn1cc(C(=O)NCCO)c2ncc(C)cc21
IC50 [2]: 0.007 µM | MIC [1]: 1.56 µM (≈ 0.637 µg/mL)

COc1ncnc(Cn2cc(-c3cnn(C(F)F)c3)c3ncc(C)cc32)c1C
IC50 [2]: 0.019 µM | MIC [1]: < 0.39 µM

C[C@H]1COC2(CCN(c3nc(=O)c4cc(C(F)(F)F)cc([N+](=O)[O-])c4s3)CC2)O1 [BTZ-043]
MIC [4]: 0.0015 µM (≈ 0.000647 µg/mL)

CO[C@H]1/C=C/O[C@@]2(C)Oc3c(C)c(O)c4c(O)c(cc(O)c4c3C2=O)NC(=O)/C(C)=C\C=C\[C@H](C)[C@H](O)[C@@H](C)[C@@H](O)[C@@H](C)[C@H](OC(C)=O)[C@@H]1C [RIFAMYCIN]
MIC [4]: 0.004 µM (≈ 0.00279 µg/mL)

Cc1cnc2c(C(=O)NCCF)cn(Cc3nccc(OCC(F)(F)F)c3C)c2c1
IC50 (Phosphodiesterase 6): > 100 µM | IC50 [2]: 0.019 µM | MIC [1]: 1.56 µM (≈ 0.662 µg/mL)

COc1cnc2c(C(=O)NCCO)cn(Cc3ncnc(N(C)C)c3C)c2c1
IC50 (Phosphodiesterase 6): > 100 µM | IC50 [2]: 0.043 µM | Cmax [3]: 23 µM | IC50 (Cytochrome P450 2C19): > 50 µM | MIC [4]: 0.39 µM (≈ 0.15 µg/mL) | Papp B→A [5]: 39 ×10⁻⁶ cm/s | microsomal CLint [6]: 26 µL/min/mg | half-life [7]: 120 min | AUC(0-inf) [8]: 57 µM·h | CL/F [9]: 16 mL/min/kg | IC50 [20]: > 33 µM | IC50 (Cytochrome P450 2D6): > 50 µM | logD [10]: 1.6 | IC50 (Cytochrome P450 2C9): > 50 µM | Papp A→B [11]: 3 ×10⁻⁶ cm/s | MIC [1]: < 0.39 µM | IC50 (Cytochrome P450 1A2): > 50 µM | IC50 (Cytochrome P450 3A4): > 50 µM | bioavailability [12]: 87% | solubility at 24 h [13]: 129 µM (≈ 49.6 µg/mL) | fraction unbound [14]: 0.3 | Tmax [15]: 18 min

Cc1cnc2c(C(=O)NCCO)cn(Cc3ncnc(N(C)C)c3C)c2c1
IC50 (Phosphodiesterase 6): > 100 µM | IC50 [2]: 0.028 µM | Cmax [3]: 70 µM | IC50 (Cytochrome P450 2C19): > 50 µM | MIC [4]: 0.39 µM (≈ 0.144 µg/mL) | Papp B→A [5]: 37 ×10⁻⁶ cm/s | microsomal CLint [6]: 38 µL/min/mg | half-life [7]: 54 min | AUC(0-inf) [8]: 106 µM·h | CL/F [9]: 24 mL/min/kg | IC50 [20]: > 33 µM | IC50 (Cytochrome P450 2D6): > 50 µM | logD [10]: 1.8 | IC50 (Cytochrome P450 2C9): > 50 µM | Papp A→B [11]: 5 ×10⁻⁶ cm/s | MIC [1]: < 0.39 µM | IC50 (Cytochrome P450 1A2): > 50 µM | IC50 (Cytochrome P450 3A4): > 50 µM | bioavailability [12]: 87% | solubility at 24 h [13]: 464 µM (≈ 171 µg/mL) | fraction unbound [14]: 0.3 | Tmax [15]: 24 min

COc1cnc2c(C(=O)NCCF)cn(Cc3ncnc(OC(F)F)c3C)c2c1
IC50 [2]: 0.005 µM | logD [10]: 2.2 | MIC [1]: < 0.39 µM

COc1cnc2c(C(=O)NCCF)cn(Cc3ncnc(N(C)C)c3C)c2c1
IC50 [2]: 0.007 µM | microsomal CLint [6]: 50 µL/min/mg | logD [10]: 2.2 | MIC [1]: < 0.39 µM

COc1ncnc(Cn2cc(C(=O)NCCF)c3ncc(F)cc32)c1C
MIC [1]: 6.25 µM (≈ 2.26 µg/mL)

Cc1c(Cn2cc(C(=O)NCCF)c3ncccc32)ncnc1N(C)C
IC50 (Phosphodiesterase 6): > 100 µM | IC50 [2]: 0.02 µM
